Measured values taken from publication PMC9851200, “Multiparameter phenotypic screening for endogenous TFEB and TFE3 translocation identifies novel chemical series modulating lysosome function” (Autophagy, 2022).

Legend:
Assay type in all cases: binding
[1] = biological target: kinases (KINOMEscan panel) (Homo sapiens, UniProt P00533, DEL752-759); settings: EGFR(S752-I759del); NEW KINOMEscan
[2] = biological target: kinases (KINOMEscan panel) (Homo sapiens, UniProt P11362); settings: kinase FGFR1; NEW KINOMEscan
Chain of kinases (KINOMEscan panel) (Homo sapiens, UniProt P11362) (P11362 22-822): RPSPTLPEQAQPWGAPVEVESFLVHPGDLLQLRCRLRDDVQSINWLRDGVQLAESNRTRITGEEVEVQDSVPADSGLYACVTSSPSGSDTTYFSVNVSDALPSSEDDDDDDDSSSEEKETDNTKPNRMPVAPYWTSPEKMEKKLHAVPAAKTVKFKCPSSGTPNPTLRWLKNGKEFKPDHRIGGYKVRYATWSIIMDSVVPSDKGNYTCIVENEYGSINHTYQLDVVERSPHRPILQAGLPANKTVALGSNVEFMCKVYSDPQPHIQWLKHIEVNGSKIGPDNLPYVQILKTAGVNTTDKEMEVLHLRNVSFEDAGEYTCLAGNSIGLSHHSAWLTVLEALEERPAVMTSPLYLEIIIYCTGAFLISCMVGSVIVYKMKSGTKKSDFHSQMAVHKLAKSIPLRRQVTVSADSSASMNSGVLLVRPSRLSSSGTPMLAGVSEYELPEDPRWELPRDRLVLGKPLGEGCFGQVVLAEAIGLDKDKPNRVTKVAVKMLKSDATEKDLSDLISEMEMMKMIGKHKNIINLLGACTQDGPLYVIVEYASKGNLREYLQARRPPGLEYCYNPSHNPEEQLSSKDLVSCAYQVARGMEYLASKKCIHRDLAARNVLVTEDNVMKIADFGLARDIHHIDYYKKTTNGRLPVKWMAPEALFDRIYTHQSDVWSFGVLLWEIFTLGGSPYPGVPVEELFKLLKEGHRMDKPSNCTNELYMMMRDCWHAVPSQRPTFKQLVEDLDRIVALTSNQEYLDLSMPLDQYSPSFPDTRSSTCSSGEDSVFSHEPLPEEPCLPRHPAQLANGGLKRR

[3] = biological target: kinases (KINOMEscan panel) (Homo sapiens, UniProt O60674); settings: JAK2(JH1domain-catalytic); NEW KINOMEscan
Chain of kinases (KINOMEscan panel) (Homo sapiens, UniProt O60674) (O60674 whole entry): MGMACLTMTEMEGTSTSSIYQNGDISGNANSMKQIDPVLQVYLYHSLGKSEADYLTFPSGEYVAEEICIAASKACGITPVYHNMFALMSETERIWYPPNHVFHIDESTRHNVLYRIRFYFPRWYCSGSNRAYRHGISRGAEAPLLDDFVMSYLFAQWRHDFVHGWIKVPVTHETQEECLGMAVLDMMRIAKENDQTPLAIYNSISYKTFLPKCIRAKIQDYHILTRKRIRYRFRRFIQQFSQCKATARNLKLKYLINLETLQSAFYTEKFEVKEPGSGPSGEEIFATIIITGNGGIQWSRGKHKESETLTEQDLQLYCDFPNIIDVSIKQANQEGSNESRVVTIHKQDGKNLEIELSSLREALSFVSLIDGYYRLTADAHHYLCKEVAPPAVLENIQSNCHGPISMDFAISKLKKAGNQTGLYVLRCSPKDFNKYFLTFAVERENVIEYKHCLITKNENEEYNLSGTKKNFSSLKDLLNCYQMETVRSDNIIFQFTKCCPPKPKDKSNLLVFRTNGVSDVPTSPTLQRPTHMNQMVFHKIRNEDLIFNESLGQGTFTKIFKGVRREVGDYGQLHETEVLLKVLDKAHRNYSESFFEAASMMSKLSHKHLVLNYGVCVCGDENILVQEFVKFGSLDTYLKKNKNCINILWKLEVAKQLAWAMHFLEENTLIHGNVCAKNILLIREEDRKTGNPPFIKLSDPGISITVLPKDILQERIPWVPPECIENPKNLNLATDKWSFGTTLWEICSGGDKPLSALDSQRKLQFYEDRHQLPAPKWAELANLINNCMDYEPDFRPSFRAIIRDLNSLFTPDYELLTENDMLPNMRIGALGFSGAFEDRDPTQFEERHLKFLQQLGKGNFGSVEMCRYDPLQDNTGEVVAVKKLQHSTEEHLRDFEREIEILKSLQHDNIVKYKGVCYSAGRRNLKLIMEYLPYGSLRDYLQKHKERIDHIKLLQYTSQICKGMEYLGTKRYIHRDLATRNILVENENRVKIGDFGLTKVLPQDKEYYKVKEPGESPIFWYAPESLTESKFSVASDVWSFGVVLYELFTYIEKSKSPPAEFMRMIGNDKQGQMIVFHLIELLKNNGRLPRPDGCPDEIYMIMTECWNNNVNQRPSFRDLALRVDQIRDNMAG

[4] = biological target: T1, kinases (KINOMEscan panel) (Homo sapiens, UniProt O43318); settings: NEW KINOMEscan
T1 sequence (O43318 1-606): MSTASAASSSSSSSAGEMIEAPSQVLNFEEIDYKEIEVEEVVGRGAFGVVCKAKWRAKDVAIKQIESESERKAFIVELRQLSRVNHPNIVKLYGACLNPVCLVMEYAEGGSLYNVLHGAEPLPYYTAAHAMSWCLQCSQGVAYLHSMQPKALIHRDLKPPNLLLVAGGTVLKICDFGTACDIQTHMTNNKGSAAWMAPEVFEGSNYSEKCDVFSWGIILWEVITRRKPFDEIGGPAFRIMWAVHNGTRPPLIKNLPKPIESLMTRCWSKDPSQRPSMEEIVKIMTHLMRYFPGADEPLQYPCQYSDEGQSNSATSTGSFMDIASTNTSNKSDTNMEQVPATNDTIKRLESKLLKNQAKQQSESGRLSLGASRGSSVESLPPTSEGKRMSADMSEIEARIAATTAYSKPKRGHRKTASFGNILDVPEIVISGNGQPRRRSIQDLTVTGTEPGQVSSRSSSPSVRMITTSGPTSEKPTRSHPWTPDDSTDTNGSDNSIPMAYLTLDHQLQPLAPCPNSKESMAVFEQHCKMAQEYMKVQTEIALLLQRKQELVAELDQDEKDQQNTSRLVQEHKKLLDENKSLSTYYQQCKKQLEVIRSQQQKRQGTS

[5] = biological target: kinases (KINOMEscan panel) (Homo sapiens, UniProt Q9Y463); settings: kinase DYRK1B; NEW KINOMEscan
Chain of kinases (KINOMEscan panel) (Homo sapiens, UniProt Q9Y463) (Q9Y463 whole entry): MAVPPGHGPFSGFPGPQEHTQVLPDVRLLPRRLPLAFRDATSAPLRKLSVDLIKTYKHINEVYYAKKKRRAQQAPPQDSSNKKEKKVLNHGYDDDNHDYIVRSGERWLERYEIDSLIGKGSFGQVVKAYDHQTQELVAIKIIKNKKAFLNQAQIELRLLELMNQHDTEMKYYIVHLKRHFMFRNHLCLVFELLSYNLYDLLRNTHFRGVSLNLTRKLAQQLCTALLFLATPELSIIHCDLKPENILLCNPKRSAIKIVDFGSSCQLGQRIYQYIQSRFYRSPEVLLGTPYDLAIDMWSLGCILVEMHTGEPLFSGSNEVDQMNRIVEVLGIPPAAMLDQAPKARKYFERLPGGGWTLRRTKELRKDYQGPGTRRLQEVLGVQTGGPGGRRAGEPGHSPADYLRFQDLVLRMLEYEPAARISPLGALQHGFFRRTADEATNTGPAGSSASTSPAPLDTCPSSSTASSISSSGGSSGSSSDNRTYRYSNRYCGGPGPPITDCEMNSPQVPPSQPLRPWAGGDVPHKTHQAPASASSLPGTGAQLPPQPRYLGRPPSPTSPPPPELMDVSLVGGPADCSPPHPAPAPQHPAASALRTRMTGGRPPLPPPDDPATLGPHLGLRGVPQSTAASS

[6] = biological target: T2, kinases (KINOMEscan panel) (Homo sapiens, UniProt P29320); settings: kinase EPHA3; NEW KINOMEscan
T2 sequence (P29320 21-983): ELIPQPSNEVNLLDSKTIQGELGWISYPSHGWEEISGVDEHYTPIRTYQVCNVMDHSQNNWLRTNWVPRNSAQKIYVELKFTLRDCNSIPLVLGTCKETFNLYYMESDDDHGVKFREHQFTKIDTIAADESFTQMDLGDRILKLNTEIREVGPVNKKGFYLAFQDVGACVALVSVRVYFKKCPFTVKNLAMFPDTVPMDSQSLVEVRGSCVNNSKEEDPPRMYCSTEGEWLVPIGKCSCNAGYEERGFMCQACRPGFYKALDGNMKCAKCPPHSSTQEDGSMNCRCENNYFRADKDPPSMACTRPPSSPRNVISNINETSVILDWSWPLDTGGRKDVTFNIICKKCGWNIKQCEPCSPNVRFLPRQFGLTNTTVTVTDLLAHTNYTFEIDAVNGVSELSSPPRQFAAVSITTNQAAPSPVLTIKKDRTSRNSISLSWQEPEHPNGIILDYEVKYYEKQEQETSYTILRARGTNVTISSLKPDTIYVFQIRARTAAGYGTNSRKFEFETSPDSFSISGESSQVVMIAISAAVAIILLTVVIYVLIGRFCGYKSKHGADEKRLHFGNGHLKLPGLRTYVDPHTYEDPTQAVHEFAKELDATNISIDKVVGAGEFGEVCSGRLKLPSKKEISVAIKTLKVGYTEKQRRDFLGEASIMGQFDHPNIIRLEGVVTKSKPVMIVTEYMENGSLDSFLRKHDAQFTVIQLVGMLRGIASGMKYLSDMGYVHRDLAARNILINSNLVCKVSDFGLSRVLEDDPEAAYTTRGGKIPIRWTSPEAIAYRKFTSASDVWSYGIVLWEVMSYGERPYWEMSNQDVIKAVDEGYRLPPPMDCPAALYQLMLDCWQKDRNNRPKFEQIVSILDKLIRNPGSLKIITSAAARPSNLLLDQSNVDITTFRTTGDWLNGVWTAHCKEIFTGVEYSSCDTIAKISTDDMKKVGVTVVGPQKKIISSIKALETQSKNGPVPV

[7] = biological target: T3, kinases (KINOMEscan panel) (Homo sapiens, UniProt P51817); settings: kinase PRKX; NEW KINOMEscan
T3 sequence (P51817 1-358): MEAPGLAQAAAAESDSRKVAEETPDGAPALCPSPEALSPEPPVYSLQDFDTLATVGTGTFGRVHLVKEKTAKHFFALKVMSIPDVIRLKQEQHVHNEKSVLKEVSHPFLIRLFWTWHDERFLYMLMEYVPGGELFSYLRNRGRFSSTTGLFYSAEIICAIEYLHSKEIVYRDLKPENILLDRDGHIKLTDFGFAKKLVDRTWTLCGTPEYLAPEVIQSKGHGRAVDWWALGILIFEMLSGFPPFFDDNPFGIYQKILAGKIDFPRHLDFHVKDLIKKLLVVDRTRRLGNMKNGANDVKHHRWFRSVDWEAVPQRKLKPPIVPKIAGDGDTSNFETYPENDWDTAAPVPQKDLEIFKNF

[8] = biological target: kinases (KINOMEscan panel) (Homo sapiens, UniProt Q8NEV4); settings: kinase MYO3A; NEW KINOMEscan
[9] = biological target: kinases (KINOMEscan panel) (Homo sapiens, UniProt P43405); settings: SYK; NEW KINOMEscan
[10] = biological target: kinases (KINOMEscan panel) (Homo sapiens, UniProt P57059); settings: kinase SIK1; NEW KINOMEscan
Chain of kinases (KINOMEscan panel) (Homo sapiens, UniProt P57059) (P57059 whole entry): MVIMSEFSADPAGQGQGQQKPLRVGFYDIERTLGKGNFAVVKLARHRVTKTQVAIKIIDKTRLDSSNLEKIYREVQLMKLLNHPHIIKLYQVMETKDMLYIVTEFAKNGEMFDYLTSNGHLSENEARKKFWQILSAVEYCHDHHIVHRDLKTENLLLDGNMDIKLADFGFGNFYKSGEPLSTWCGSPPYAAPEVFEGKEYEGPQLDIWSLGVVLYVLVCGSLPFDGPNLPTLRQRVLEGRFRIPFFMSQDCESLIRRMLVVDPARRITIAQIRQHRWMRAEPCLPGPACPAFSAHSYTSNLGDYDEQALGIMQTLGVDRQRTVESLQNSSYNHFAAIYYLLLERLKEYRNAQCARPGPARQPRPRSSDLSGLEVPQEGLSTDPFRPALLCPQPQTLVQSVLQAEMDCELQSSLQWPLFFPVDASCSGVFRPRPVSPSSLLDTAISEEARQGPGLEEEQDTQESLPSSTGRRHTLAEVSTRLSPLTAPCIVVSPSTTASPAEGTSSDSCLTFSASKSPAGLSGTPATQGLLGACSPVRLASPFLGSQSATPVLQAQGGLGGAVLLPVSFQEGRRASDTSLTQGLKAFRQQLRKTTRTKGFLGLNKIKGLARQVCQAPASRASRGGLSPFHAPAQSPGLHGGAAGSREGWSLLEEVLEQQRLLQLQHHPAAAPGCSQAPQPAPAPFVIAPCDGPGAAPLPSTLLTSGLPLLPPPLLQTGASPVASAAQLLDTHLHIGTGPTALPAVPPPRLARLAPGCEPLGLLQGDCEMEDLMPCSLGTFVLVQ

[11] = biological target: kinases (KINOMEscan panel) (Homo sapiens, UniProt Q15569); settings: TESK1; NEW KINOMEscan
Chain of kinases (KINOMEscan panel) (Homo sapiens, UniProt Q15569) (Q15569 whole entry): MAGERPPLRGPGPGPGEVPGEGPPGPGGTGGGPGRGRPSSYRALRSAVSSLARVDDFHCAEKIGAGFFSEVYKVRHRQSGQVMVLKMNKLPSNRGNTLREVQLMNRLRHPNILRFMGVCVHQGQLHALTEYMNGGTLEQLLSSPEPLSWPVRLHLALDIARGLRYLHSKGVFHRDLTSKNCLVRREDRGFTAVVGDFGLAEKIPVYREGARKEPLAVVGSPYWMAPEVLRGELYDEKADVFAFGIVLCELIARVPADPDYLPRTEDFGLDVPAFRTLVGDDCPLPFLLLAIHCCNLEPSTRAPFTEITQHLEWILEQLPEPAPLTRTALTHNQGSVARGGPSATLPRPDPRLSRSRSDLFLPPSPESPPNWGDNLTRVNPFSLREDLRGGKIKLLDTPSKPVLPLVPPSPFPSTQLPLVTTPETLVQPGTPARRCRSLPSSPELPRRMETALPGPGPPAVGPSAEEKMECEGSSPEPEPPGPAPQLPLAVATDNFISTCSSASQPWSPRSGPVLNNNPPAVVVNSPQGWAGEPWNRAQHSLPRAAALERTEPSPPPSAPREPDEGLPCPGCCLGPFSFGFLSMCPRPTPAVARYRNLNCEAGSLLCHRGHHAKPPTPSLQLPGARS

[12] = biological target: kinases (KINOMEscan panel) (Homo sapiens, UniProt P21127); settings: CDK11B; NEW KINOMEscan
Chain of kinases (KINOMEscan panel) (Homo sapiens, UniProt P21127) (P21127 whole entry): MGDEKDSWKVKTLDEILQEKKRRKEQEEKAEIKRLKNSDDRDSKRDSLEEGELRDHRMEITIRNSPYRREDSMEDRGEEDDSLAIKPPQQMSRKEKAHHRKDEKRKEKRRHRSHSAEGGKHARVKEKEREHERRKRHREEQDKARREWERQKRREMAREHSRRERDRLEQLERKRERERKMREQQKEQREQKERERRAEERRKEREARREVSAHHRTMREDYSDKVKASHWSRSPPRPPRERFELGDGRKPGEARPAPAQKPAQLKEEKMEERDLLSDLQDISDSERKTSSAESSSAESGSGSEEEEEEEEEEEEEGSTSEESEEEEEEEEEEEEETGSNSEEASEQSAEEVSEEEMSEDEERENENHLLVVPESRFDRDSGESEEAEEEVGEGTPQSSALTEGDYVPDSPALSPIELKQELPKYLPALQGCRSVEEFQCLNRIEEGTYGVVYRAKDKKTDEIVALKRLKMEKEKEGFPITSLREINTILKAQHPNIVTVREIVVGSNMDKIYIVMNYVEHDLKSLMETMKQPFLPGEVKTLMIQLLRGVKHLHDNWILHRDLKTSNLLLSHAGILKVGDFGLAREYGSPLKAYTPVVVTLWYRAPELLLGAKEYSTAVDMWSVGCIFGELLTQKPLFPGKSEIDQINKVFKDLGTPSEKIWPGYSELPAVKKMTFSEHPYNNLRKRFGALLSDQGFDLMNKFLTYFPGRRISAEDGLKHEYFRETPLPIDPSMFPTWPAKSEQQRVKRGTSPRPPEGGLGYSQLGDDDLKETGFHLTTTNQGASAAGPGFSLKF

[13] = biological target: kinases (KINOMEscan panel) (Homo sapiens, UniProt P11802); settings: NEW KINOMEscan; for KINOMEscan CDK4-cyclinD3: kinase CDK4-cyclinD3; for KINOMEscan CDK4: kinase CDK4
Chain of kinases (KINOMEscan panel) (Homo sapiens, UniProt P11802) (P11802 whole entry): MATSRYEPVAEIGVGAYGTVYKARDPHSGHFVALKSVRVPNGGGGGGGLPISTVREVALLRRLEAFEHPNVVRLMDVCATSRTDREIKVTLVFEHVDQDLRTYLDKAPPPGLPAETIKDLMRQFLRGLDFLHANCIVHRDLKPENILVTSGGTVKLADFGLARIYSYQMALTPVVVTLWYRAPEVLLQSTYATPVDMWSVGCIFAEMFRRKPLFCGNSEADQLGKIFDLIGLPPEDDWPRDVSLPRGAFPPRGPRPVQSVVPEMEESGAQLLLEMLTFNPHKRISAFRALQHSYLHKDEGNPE

With `Cc1cccc(-c2nc(Nc3ccc4nn(C)cc4c3)c3ccccc3n2)n1` [NK167] the “KINOMEscan EGFR(S752-I759del)” value [1] was 0, the “KINOMEscan FGFR1” value [2] was 15 and the “KINOMEscan JAK2(JH1domain-catalytic)” value [3] was 0. For the same compound, the “KINOMEscan MAP3K7” value [4] was 0, the “KINOMEscan DYRK1B” value [5] was 12 and the “KINOMEscan EPHA3” value [6] was 0. For the same compound, the “KINOMEscan PRKX” value [7] was 0, the “KINOMEscan MYO3A” value [8] was 0 and the “KINOMEscan SYK” value [9] was 0. The “KINOMEscan SIK1” value [10] was 1, the “KINOMEscan TESK1” value [11] was 0 and the “KINOMEscan CDK11B” value [12] was 10. The “KINOMEscan CDK4-cyclinD1 (???) CCND1” value [13] was 10, the “KINOMEscan CDK4-cyclinD3” value [13] was 0 and the “KINOMEscan CDK4” value [13] was 0.
In the case of `Cc1cccc(-c2nc(N(C)c3ccc4ncsc4c3)c3ccccc3n2)n1` [NK-161], the “KINOMEscan EGFR(S752-I759del)” value [1] is reported as 0, the “KINOMEscan FGFR1” value [2] is reported as 10 and the “KINOMEscan JAK2(JH1domain-catalytic)” value [3] is reported as 0. For the same compound, the “KINOMEscan MAP3K7” value [4] was 10, the “KINOMEscan DYRK1B” value [5] was 16 and the “KINOMEscan EPHA3” value [6] was 0. The “KINOMEscan PRKX” value [7] was 7, the “KINOMEscan MYO3A” value [8] was 0 and the “KINOMEscan SYK” value [9] was 6. The “KINOMEscan SIK1” value [10] was 12, the “KINOMEscan TESK1” value [11] was 0 and the “KINOMEscan CDK11B” value [12] was 1. The “KINOMEscan CDK4-cyclinD1 (???) CCND1” value [13] was 18, the “KINOMEscan CDK4-cyclinD3” value [13] was 0 and the “KINOMEscan CDK4” value [13] was 0.
